Measurements published in PubChem BioAssay AID330 (DTP/NCI, 2004).
Several values for one entry are separate records, joined by “and”; a condition that tells them apart may be missing. Identical values can stand only once. Toxic doses and inconclusive results are not listed.

System: P388 leukemia ip, CD2F1 mice, survival T/C
Experiment: NCI In Vivo Anticancer Drug Screen. Data for tumor model P388 Leukemia (intraperitoneal) in CD2F1 (CDF1) mice
Conditions: endpoint: median survival time, higher = longer survival
Method in brief: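 Mice carrying the transplanted tumor received test compound or vehicle. Survival was recorded in each group, and the value is the treated-group measurement divided by that of the vehicle-treated control group.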

[1] = dose: 50.0 mg/kg/injection, schedule: Q01DX005 (ip), vehicle: saline with Tween-80
[2] = dose: 100.0 mg/kg/injection, schedule: Q01DX005 (ip), vehicle: saline with Tween-80
[3] = dose: 25.0 mg/kg/injection, schedule: Q04DX002 (ip), vehicle: saline with Tween-80
[4] = dose: 50.0 mg/kg/injection, schedule: Q04DX002 (ip), vehicle: saline with Tween-80
[5] = dose: 60.0 mg/kg/injection, schedule: Q01DX005 (ip), vehicle: saline with Tween-80
[6] = dose: 120.0 mg/kg/injection, schedule: Q01DX005 (ip), vehicle: saline with Tween-80
[7] = dose: 240.0 mg/kg/injection, schedule: Q01DX005 (ip), vehicle: saline with Tween-80

N#CC1=CNc2ccccc2N=C1N
T/C [1]: 104 % of control | T/C [2]: 99 % of control

O=C1C(C(=Nc2cccc(Cl)c2)c2ccccc2)=C(O)c2ccccc21
T/C [3]: 93 % of control | T/C [4]: 95 % of control

CCCCc1c2cnccc2c(CCCC)c2c1[nH]c1ccccc12
T/C [3]: 105 % of control | T/C [4]: 100 % of control | T/C (dose: 100.0 mg/kg/injection, schedule: Q04DX002 (ip), vehicle: saline with Tween-80): 96 % of control | T/C (dose: 200.0 mg/kg/injection, schedule: Q04DX002 (ip), vehicle: saline with Tween-80): 91 % of control

CCCCCCCCCCC(Nc1nncs1)Nc1nncs1
T/C [5]: 96 % of control | T/C [6]: 95 % of control | T/C [7]: 95 % of control

CN(c1ncc(Cc2cnc(N(C)C3CCN(Cc4ccccc4)CC3)nc2)cn1)C1CCN(Cc2ccccc2)CC1
T/C [1]: 93 % of control | T/C [2]: 96 % of control | T/C (dose: 200.0 mg/kg/injection, schedule: Q01DX005 (ip), vehicle: saline with Tween-80): 92 % of control

COC(OC)C(C)(C)NC(C)(C)C
T/C (dose: 50.0 mg/kg/injection, schedule: Q01DX009 (ip), vehicle: saline): 104 % of control | T/C (dose: 100.0 mg/kg/injection, schedule: Q01DX009 (ip), vehicle: saline): 100 % of control

CC1=C[P+](c2ccccc2)(c2ccccc2)C=C(C)O1
T/C (dose: 3.12 mg/kg/injection, schedule: Q01DX005 (ip), vehicle: saline): 96 % of control | T/C (dose: 6.25 mg/kg/injection, schedule: Q01DX005 (ip), vehicle: saline): 105 % of control | T/C (dose: 12.5 mg/kg/injection, schedule: Q01DX005 (ip), vehicle: saline): 105 % of control

CCN(CC)c1ccc2cc(-c3nc4ccccc4s3)c(=O)oc2c1
T/C (dose: 100.0 mg/kg/injection, schedule: Q04DX003 (ip), vehicle: Klucel (hydroxypropylcellulose) (HPC)): 92 % of control | T/C (dose: 200.0 mg/kg/injection, schedule: Q04DX003 (ip), vehicle: Klucel (hydroxypropylcellulose) (HPC)): 92 % of control | T/C (dose: 400.0 mg/kg/injection, schedule: Q04DX003 (ip), vehicle: Klucel (hydroxypropylcellulose) (HPC)): 104 % of control

CN(C)C(=S)N/N=C/c1ccccn1
T/C (dose: 6.25 mg/kg/injection, schedule: Q01DX005 (ip), vehicle: Klucel (hydroxypropylcellulose) (HPC)): 115 % of control | T/C (dose: 12.5 mg/kg/injection, schedule: Q01DX005 (ip), vehicle: Klucel (hydroxypropylcellulose) (HPC)): 115 % of control

CC1(O)Cc2c(O)c3c(c(O)c2CC1O)C(=O)C=CC3=O (configuration not stated)
T/C (dose: 3.13 mg/kg/injection, schedule: Q04DX003 (ip), vehicle: distilled water + Tween-80): 100 % of control | T/C (dose: 6.25 mg/kg/injection, schedule: Q04DX003 (ip), vehicle: distilled water + Tween-80): 100 % of control | T/C (dose: 12.5 mg/kg/injection, schedule: Q04DX003 (ip), vehicle: distilled water + Tween-80): 97 % of control | T/C (dose: 25.0 mg/kg/injection, schedule: Q04DX003 (ip), vehicle: distilled water + Tween-80): 100 % of control and 96 % of control

Cc1c2cc[n+]([O-])cc2c(C)c2c1oc1ccccc12
T/C (dose: 25.0 mg/kg/injection, schedule: Q01DX009 (ip), vehicle: saline with Tween-80): 115 % of control | T/C (dose: 100.0 mg/kg/injection, schedule: Q01DX009 (ip), vehicle: saline with Tween-80): 154 % of control | T/C (dose: 200.0 mg/kg/injection, schedule: Q01DX009 (ip), vehicle: saline with Tween-80): 165 % of control and 173 % of control

CCOc1ccc(C(C[N+](=O)[O-])Sc2ccccc2N)cc1 (configuration not stated)
T/C [5]: 97 % of control | T/C [6]: 106 % of control | T/C [7]: 113 % of control

CC(C)(OC(=O)N=[N+]=[N-])c1ccc(N=Nc2ccccc2)cc1
T/C (dose: 50.0 mg/kg/injection, schedule: Q01DX009 (ip), vehicle: saline + alcohol): 94 % of control | T/C (dose: 100.0 mg/kg/injection, schedule: Q01DX009 (ip), vehicle: saline + alcohol): 98 % of control | T/C (dose: 200.0 mg/kg/injection, schedule: Q01DX009 (ip), vehicle: saline + alcohol): 87 % of control
